Results as given in article PMC6332095, “Purification and Partial Characterization of β-Glucosidase in Chayote (Sechium edule)” (Molecules, 2015).

Legend:
[1] = system: T1, β-glucosidase in Sechium edule (Sebg; chayotase); assay: p-nitrophenol release, […] nm; Michaelis-Menten nonlinear fit; type: biochemical; conditions: standard assay: sodium citrate 0.2 M, pH 5.0, 25 °C
T1 construct: native purification from fruit pulp (epicarp and mesocarp); homodimer 116 kDa, 58 kDa subunits; tryptic peptides MGFDAYR, FSIAWSR, WFENFLK, DFSEVCFK, EAMQAGVRVK, FGLTYIDYK, NNLK

[2] = molecular target: β-glucosidase from chayote (Sechium edule) (Sechium edule); assay: native gel or EMSA; native PAGE on 5%, 7.5%, 10% and 12.5% polyacrylamide gels, pH 8.3, Hedrick and Smith method; native mass 116 kDa compared with the 58 kDa subunit on SDS-PAGE

Km [1]	stoichiometry N [2]	Molecule
4.88 mM	–	O=[N+]([O-])c1ccc(O[C@@H]2O[C@H](CO)[C@@H](O)[C@H](O)[C@H]2O)cc1 [p-nitrophenyl-β-D-glucopyranoside]
–	2	β-glucosidase from chayote (Sechium edule) (enzyme)
